Where a name gives a salt, the structure may show the parent alone. Read-outs that look alike come from different tables or passages of the source.
Columns and labels:
S. pneumoniae = assay: Resistance frequency determination and cross resistance of spontaneous mutants; assay type: cell-based, Streptococcus pneumoniae; conditions: cross resistance testing of 2 mutants
[1] = system: Escherichia coli (ATCC 700926); assay: MIC determination, microbroth dilution; assay type: cell-based; conditions: ATCC700926; Escherichia coli (ATCC 700926); read-out: MIC E.c.
[2] = system: Bacillus anthracis, Sterne 34F2; assay: microbe, parasite or virus in culture; assay type: cell-based; conditions: STERNE34F2, read-out: MIC B.a.
[3] = system: Neisseria gonorrhoeae (ATCC 49226); assay: Disc diffusion assay; assay type: cell-based; conditions: ATCC49226, 4 μg per disc, read-out: Zone of inhibition N.g.
[4] = system: Pseudomonas aeruginosa (PA01); assay: MIC determination, microbroth dilution; assay type: cell-based
[5] = system: Streptococcus pyogenes (ATCC 700294); assay: MIC determination, microbroth dilution; assay type: cell-based; conditions: ATCC700294; Streptococcus pyogenes (ATCC 700294); read-out: MIC S. py.
[6] = system: M. tuberculosis clinical isolates; assay: microbe, parasite or virus in culture; assay type: cell-based; conditions: Mycobacterium tuberculosis, H37RV, read-out: MIC H37Rv
[7] = system: Proteus mirabilis (ATCC 25933); assay: MIC determination, microbroth dilution; assay type: cell-based; conditions: ATCC25933
[8] = system: Stenotrophomonas maltophilia (ATCC 13637); assay: MIC determination, microbroth dilution; assay type: cell-based; conditions: ATCC13637; Stenotrophomonas maltophilia (ATCC 13637); read-out: MIC S.m.
[9] = system: Haemophilus influenza (ATCC 49247); assay: microbe, parasite or virus in culture; assay type: cell-based; conditions: ATCC49247; Haemophilus influenza; 4 μg per disc; range of at least two experiments; read-out: Zone of inhibition H.i.
[10] = system: Streptococcus pneumoniae clinical isolates representing several serotypes; assay: MIC determination, Streptococcus pneumoniae panel of clinical isolates (Table 7); assay type: cell-based; conditions: Streptococcus pneumoniae
Bacillus anthracis = assay: microbe, parasite or virus in culture; assay type: cell-based; conditions: read-out: MIC B.a.
[11] = system: Proteus vulgaris (ATCC 33420); assay: MIC determination, microbroth dilution; assay type: cell-based; conditions: ATCC33420
[12] = system: Legionella pneumophila (ATCC 33153); assay: microbe, parasite or virus in culture; assay type: cell-based; conditions: ATCC33153, 72 h, read-out: Zone of inhibition L.p.
[13] = system: Staphylococcus aureus (ATCC 29213); assay: MIC determination, microbroth dilution; assay type: cell-based; conditions: ATCC29213; Staphylococcus aureus (ATCC 29213); read-out: MIC S.a.
[14] = system: Streptococcus pneumoniae (R6); assay: MIC determination, microbroth dilution; assay type: cell-based
[15] = system: acinetobacter baumannii (ATCC 19606); assay: MIC determination, microbroth dilution; assay type: cell-based; conditions: ATCC19606
[16] = system: Neisseria meningitides (ATCC 13077); assay: Disc diffusion assay; assay type: cell-based; conditions: ATCC13077, 4 μg per disc, read-out: Zone of inhibition N.m.
Moraxella catarrhalis = assay: MIC determination (Table 6); assay type: cell-based
[17] = system: Neisseria gonorrhoeae (ATCC 49226); assay: Agar MIC determination (Alamar Blue); assay type: cell-based; conditions: ATCC49226, agar MIC, read-out: MIC N.g.
[18] = system: Burkholderia cepacia (ATCC 25416); assay: MIC determination, microbroth dilution; assay type: cell-based; conditions: Burkholderia cepacia
E. coli K12 ΔtolC = assay: microbe, parasite or virus in culture; assay type: cell-based; conditions: Escherichia coli, read-out: MIC E.c. Δtolc
[19] = system: Bacillus subtilis (ATCC 23857); assay: MIC determination, microbroth dilution; assay type: cell-based; conditions: ATCC23857; Bacillus subtilis (ATCC 23857); read-out: MIC B.s.
Listeria monocytogenes = assay: MIC determination (Table 6); assay type: cell-based
[20] = system: MRSA, Staphylococcus aureus (NRS70); assay: MIC determination, microbroth dilution; assay type: cell-based; conditions: Staphylococcus aureus (NRS70); read-out: MIC MRSA
Yersinia pestis = assay: microbe, parasite or virus in culture; assay type: cell-based; conditions: read-out: MIC Y.p.
[21] = system: Klebsiella pneumoniae (ATCC 33495); assay: MIC determination, microbroth dilution; assay type: cell-based; conditions: ATCC33495
[22] = system: Enterococcus faecalis (ATCC 33186); assay: MIC determination, microbroth dilution; assay type: cell-based; conditions: ATCC33186; Enterococcus faecalis (ATCC 33186); read-out: MIC E.f.
[23] = system: live vaccine strain (LVS) of Francisella tularensis; assay: microbe, parasite or virus in culture; assay type: cell-based; conditions: Francisella tularensis
[24] = system: gram-positive and gram-negative bacteria; assay type: cell-based
[25] = Streptococcus pneumoniae (R6), read-out: MIC S. pn.
[26] = ATCC25416, read-out: MIC B.c., Burkholderia cepacia (ATCC 25416)
[27] = ATCC25416, read-out: MIC B.c., Burkholderia cepacia, Table 6

Compound | susceptibility of mutants resistant to 2 (S. pneumoniae) | MIC [1] [µg/mL] | MIC [2] [µg/mL] | zone of inhibition at 4 µg/disc [3] [mm] | MIC [4] [µg/mL] | MIC [5] [µg/mL] | MIC [6] [µg/mL] | MIC [7] [µg/mL] | MIC [8] [µg/mL] | zone of inhibition at 4 µg/disc [9] [mm] | MIC (Bacillus anthracis) [µg/mL] | MIC [11] [µg/mL] | MIC [13] [µg/mL] | MIC [14, 25] [µg/mL] | MIC [15] [µg/mL] | zone of inhibition at 4 µg/disc [16] [mm] | MIC (Moraxella catarrhalis) [µg/mL] | MIC [17] [µg/mL] | MIC [18, 26] [µg/mL] | MIC [18, 27] [µg/mL] | other results
NCC[C@H](O)C(=O)N[C@@H]1C[C@H](N)[C@@H](O[C@H]2O[C@H](CN)[C@@H](O)[C@H](O)[C@H]2O)[C@H](O)[C@H]1O[C@H]1O[C@H](CO)[C@@H](O)[C@H](N)[C@H]1O [amikacin] | susceptible |  |  |  |  |  |  |  |  |  |  |  |  |  |  |  |  |  |  |  | 
CC1(C)S[C@@H]2[C@H](NC(=O)[C@H](N)c3ccccc3)C(=O)N2[C@H]1C(=O)O [ampicillin] | susceptible |  |  |  |  |  |  |  |  |  |  |  |  |  |  |  |  |  |  |  | 
CN[C@@H]1[C@H](O)[C@H](NC)[C@H]2O[C@]3(O)[C@H](O[C@@H]2[C@H]1O)O[C@H](C)C[C@@]3(O)CNCc1ccc(OC(F)(F)F)cc1 [compound 11, 3′-(R)-3′-[(4-trifluoromethoxyl)benzylaminomethyl)]dihydrospectinomycin Trihydrochloride] |  | 25 | 100 to 200 | 16 to 20 | 100 to 200 | 1.6 | 50 | > 200 | 50 to 100 | 16 | 100 to 200 | > 200 | 100 | 3.1 | > 200 | 18 to 19 | 6.3 | 12.5 | > 200 | > 200 | MIC ([10]; BAA1407, S. pneumoniae BAA-1407, Macrolide Resistant, read-out: MIC BAA-1407): 6.3 µg/mL; MIC ([10]; S. pneumoniae Daw7, PenG Resistant, read-out: MIC Daw7): 3.1 µg/mL; MIC ([10]; S. pneumoniae Daw8, PenG Resistant, read-out: MIC Daw8): 1.6 µg/mL; MIC ([10]; S. pneumoniae Daw9, PenG Resistant, read-out: MIC Daw9): 1.6 µg/mL; MIC ([10]; S. pneumoniae Daw62, PenG Resistant, read-out: MIC Daw62): 1.6 µg/mL; MIC ([10]; S. pneumoniae Daw64, PenG Resistant, read-out: MIC Daw64): 3.1 µg/mL; MIC ([10]; S. pneumoniae OVA6, Macrolide Resistant, read-out: MIC OVA6): 6.3 µg/mL; MIC ([10]; S. pneumoniae T4X, Drug Susceptible, read-out: MIC T4X): 0.8 µg/mL; zone of inhibition at 4 µg/disc [12]: 21 mm; MIC ([14]; Streptococcus pneumoniae, S. pneumoniae R6, Drug Susceptible, read-out: MIC R6): 3.1 µg/mL; MIC (E. coli K12 ΔtolC): 12.5 µg/mL; MIC [19]: 100 µg/mL; MIC (Listeria monocytogenes): 12.5 to 25 µg/mL; MIC [20]: 100 to 200 µg/mL; MIC (Yersinia pestis): 200 µg/mL; MIC [21]: > 200 µg/mL; MIC [22]: 25 to 50 µg/mL; MIC [23]: 1.6 µg/mL; MIC ([23]; read-out: MIC F.t.): 1.6 to 3.1 µg/mL
CN[C@@H]1[C@H](O)[C@H](NC)[C@H]2O[C@]3(O)[C@H](O[C@@H]2[C@H]1O)O[C@H](C)C[C@@]3(O)CNCCCc1ccccc1 [compound 13, 3′-(R)-3′-(phenylpropylaminomethyl)dihydrospectinomycin Trihydrochloride] |  | 12.5 | 3.1 to 6.3 | 15 | 200 | 3.1 | 3.1 | > 200 | 6.3 to 12.5 | 14 | 3.1 to 6.3 | ≥ 200 | 12.5 | 3.1 | > 200 | 21 | 0.4 | 12.5 to 25 | > 200 | > 200 | MIC relative to parent SPC [24]: ~10 % of parent SPC; MIC (E. coli K12 ΔtolC): 6.3 µg/mL; MIC [19]: 6.3 µg/mL; MIC (Listeria monocytogenes): 1.6 to 3.1 µg/mL; MIC [20]: 12.5 to 25 µg/mL; MIC (Yersinia pestis): 50 µg/mL; MIC [21]: 50 µg/mL; MIC [22]: 6.3 µg/mL
